Source: US20150065440A1 (Progen Pharmaceuticals Limited, priority 2007, published 2015)
Where a name gives a salt, the structure may show the parent alone.

Key:
FGF-1 = FGF-1 (Homo sapiens, UniProt P05230); assay: Growth factor binding assay (SPR solution affinity), FGF-1; details: SPR, HBS-EP buffer, 25° C.; read-out: Kd FGF-1
Experimental: (§1) Binding affinities of compounds for the growth factors FGF-1, FGF-2 and VEGF were measured using a surface plasmon resonance (SPR) based solution affinity assay.^9 Heparin-coated sensorchips used for this assay were prepared via immobilisation of biotinylated BSA-heparin on a streptavidin-coated sensorchip, or via aldehyde coupling using either adipic acid dihydrazide or 1,4-diaminobutane.^9 For each Kd measurement, solutions were prepared containing a fixed concentration of protein and varying concentrations of the ligand in buffer. Ligands binding to FGF-1 and VEGF were measured in HBS-EP buffer (10 mM HEPES, pH 7.4, 150 mM NaCl, 3.0 mM EDTA and 0.005% (v/v) polysorbate 20), while binding to FGF-2 was measured in HBS-EP buffer containing 0.3 M NaCl. Prior to injection, samples were maintained at 4° C. to maximise protein stability. For each assay mixture, 50-200 μL of solution was injected at 5-40 μL/min and the relative binding response measured. All surface binding experiments were performed at 25° C. The surface was regenerated by injection of 40 μL of 4M NaCl at 40 μL/min, followed by injection of 40 μL of buffer at 40 μL/min.
(§2) Sensorgram data were analysed using the BIAevaluation software (BIAcore) and Kd values determined as previously described.^9 Where Kd values were measured in duplicate, the values represent the average of the duplicate measurements.

[1] = biological target: T1, recombinant human heparanase (Homo sapiens, UniProt Q9Y251); assay: Heparanase inhibition assay (fondaparinux cleavage, WST-1); details: read-out: Ki Heparanase; IC50 converted into Ki; fondaparinux 100 μM, pH 5.0
T1 sequence (Q9Y251 158-543 limits assumed): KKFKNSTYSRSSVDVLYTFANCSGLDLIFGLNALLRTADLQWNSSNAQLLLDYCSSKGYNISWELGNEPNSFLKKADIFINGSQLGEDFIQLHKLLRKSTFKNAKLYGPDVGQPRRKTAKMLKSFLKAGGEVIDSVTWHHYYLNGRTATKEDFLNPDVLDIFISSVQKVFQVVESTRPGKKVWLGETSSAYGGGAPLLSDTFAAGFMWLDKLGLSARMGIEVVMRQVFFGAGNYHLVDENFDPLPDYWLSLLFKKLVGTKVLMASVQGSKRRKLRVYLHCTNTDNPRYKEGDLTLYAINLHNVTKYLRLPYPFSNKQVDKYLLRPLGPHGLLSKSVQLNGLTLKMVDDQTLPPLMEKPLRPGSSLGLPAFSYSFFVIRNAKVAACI
T1 sequence (Q9Y251 36-109 limits assumed): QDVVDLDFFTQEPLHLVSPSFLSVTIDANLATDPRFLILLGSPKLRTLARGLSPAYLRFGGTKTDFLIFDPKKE

[2] = system: pooled normal human plasma; assay: Anticoagulant activity, APTT; details: 0.1 mg/mL in normal pooled human plasma
Experimental: APTT measurements were performed on a STAGO STA-Compact Coagulation Analyser using standard protocols according to the manufacturer's instructions. Unfractionated heparin (UFH) was used as a control.

FGF-2 = FGF-2 (Homo sapiens, UniProt P09038); assay: Growth factor binding assay (SPR solution affinity), FGF-2; details: SPR, HBS-EP buffer containing 0.3 M NaCl, 25° C.; read-out: Kd FGF-2
Experimental: as §1, §2

VEGF = biological target: T2, VEGF (Homo sapiens, UniProt P15692); assay: Growth factor binding assay (SPR solution affinity), VEGF; details: HBS-EP buffer, 25° C.
T2 sequence (P15692 207-395): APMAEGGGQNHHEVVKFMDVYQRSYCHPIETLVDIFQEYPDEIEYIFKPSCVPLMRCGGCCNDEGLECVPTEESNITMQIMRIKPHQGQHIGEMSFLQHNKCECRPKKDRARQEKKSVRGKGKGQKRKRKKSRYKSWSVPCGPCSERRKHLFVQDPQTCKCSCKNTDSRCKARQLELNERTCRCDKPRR
Experimental: as §1, §2

[3] = system: normal pooled human plasma; assay: Anticoagulant activity, Heptest; details: 0.1 mg/mL in normal pooled human plasma

FGF-1, sequence (P05230 whole entry, species assumed): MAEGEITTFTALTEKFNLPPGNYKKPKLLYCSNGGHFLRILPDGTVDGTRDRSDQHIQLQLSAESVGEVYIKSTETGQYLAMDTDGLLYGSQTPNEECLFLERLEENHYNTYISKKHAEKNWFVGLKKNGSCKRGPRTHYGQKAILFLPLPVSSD
FGF-2, sequence (P09038 143-288, species assumed): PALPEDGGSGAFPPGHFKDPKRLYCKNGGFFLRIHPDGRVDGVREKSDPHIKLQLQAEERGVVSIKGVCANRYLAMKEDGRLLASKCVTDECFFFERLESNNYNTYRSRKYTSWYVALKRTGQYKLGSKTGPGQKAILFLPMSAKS

| SMILES | Kd (FGF-1) | Ki [1] | APTT [2] | Kd (FGF-2) | Kd (VEGF) | Heptest [3] |
| --- | --- | --- | --- | --- | --- | --- |
| CC(C)CCCC(C)C1CCC2C3CCC4CC(OCc5cn(CCCOC6OC(COS(=O)(=O)O)C(OS(=O)(=O)O)C(OS(=O)(=O)O)C6OC6OC(COS(=O)(=O)O)C(OS(=O)(=O)O)C(OC7OC(COS(=O)(=O)O)C(OS(=O)(=O)O)C(OS(=O)(=O)O)C7OS(=O)(=O)O)C6OS(=O)(=O)O)nn5)CCC4(C)C3CCC12C [Compound 48, 3-{4-(Cholestan-3β-yl-oxymethyl)-[1,2,3]triazol-1-yl}propyl 2,3,4,6-tetra-O-sodium sulfonato-α-D-mannopyranosyl-(1→3)-2,4,6-tri-O-sodium sulfonato-α-D-mannopyranosyl-(1→2)-3,4,6-tri-O-sodium sulfonato-α-D-mannopyranoside] | 22.6 ± 1 nM | 8.5 ± 0.14 nM | 73.3 s | 480 ± 40 nM | 460 ± 30 nM | 33.1 s |
| CC(C)CCCC(C)C1CCC2C3CC=C4CC(OC5OC(COS(=O)(=O)O)C(OS(=O)(=O)O)C(OS(=O)(=O)O)C5OC5OC(COS(=O)(=O)O)C(OS(=O)(=O)O)C(OC6OC(COS(=O)(=O)O)C(OS(=O)(=O)O)C(OC7OC(COS(=O)(=O)O)C(OS(=O)(=O)O)C(OS(=O)(=O)O)C7OS(=O)(=O)O)C6OS(=O)(=O)O)C5OS(=O)(=O)O)CCC4(C)C3CCC12C [Compound 17, 3β-Cholesteryl 2,3,4,6-tetra-O-sodium sulfonato-α-D-mannopyranosyl-(1→3)-2,4,6-tri-O-sodium sulfonato-α-D-mannopyranosyl-(1→3)-2,4,6-tri-O-sodium sulfonato-α-D-mannopyranosyl-(1→2)-3,4,6-tri-O-sodium sulfonato-α-D-mannopyranoside] | 3.2 ± 0.5 nM | – | – | – | 24 ± 6 nM | – |
| CC(=O)OC1CC2C(CCC3CC(OS(=O)(=O)O)CCC32C)C2CCC(C(C)CCC(=O)NC3OC(COS(=O)(=O)O)C(OC4OC(COS(=O)(=O)O)C(OC5OC(COS(=O)(=O)O)C(OC6OC(COS(=O)(=O)O)C(OS(=O)(=O)O)C(OS(=O)(=O)O)C6OS(=O)(=O)O)C(OS(=O)(=O)O)C5OS(=O)(=O)O)C(OS(=O)(=O)O)C4OS(=O)(=O)O)C(OS(=O)(=O)O)C3OS(=O)(=O)O)C12C [Compound 83, N-(2,3,4,6-tetra-O-sodiumsulfonato-α-D-glucopyranosyl-(1→4)-2,3,6-tri-O-sodiumsulfonato-α-D-glucopyranosyl-(1→4)-2,3,6-tri-O-sodiumsulfonato-α-D-glucopyranosyl-(1→4)-2,3,6-tri-O-sodiumsulfonato-β-D-glucopyranosyl)-4-((3R,10S,12S,13R)-3-O-sodiumsulfonato-12-O-acetyl-10,13-dimethylhexadecahydro-1H-cyclopenta[a]phenanthren-17-yl)pentanamide] | 1.25 ± 0.07 nM | 20 ± 5 nM | 41.0 s | 50 ± 4 nM | 7.95 ± 0.07 nM | 26.8 s |
| CC(C)CCCC(C)C1CCC2C3CCC4CC(OC5OC(COC6OC(COS(=O)(=O)O)C(OC7OC(COS(=O)(=O)O)C(OC8OC(COS(=O)(=O)O)C(OS(=O)(=O)O)C(OS(=O)(=O)O)C8OS(=O)(=O)O)C(OS(=O)(=O)O)C7OS(=O)(=O)O)C(OS(=O)(=O)O)C6OS(=O)(=O)O)C(OS(=O)(=O)O)C(OS(=O)(=O)O)C5OS(=O)(=O)O)CCC4(C)C3CCC12C [Compound 119, 3′-Cholestanyl 2,3,4,6-tetra-O-sulfo-α-D-glucopyranosyl-(1→4)-2,3,6-tri-O-sulfo-α-D-glucopyranosyl-(1→4)-2,3,6-tri-O-sulfo-β-D-glucopyranosyl-(1→6)-2,3,4-tri-O-sulfo-α-D-mannopyranoside, tridecasodium salt] | 5.9 ± 1.6 nM | – | 57.1 s | 286 ± 25 nM | 7.9 ± 0.7 nM | 28.6 s |
| CCCCCCCCCCCCCCCCCC(=O)NCCCOC1OC(COS(=O)(=O)O)C(OS(=O)(=O)O)C(OS(=O)(=O)O)C1OC1OC(COS(=O)(=O)O)C(OS(=O)(=O)O)C(OC2OC(COS(=O)(=O)O)C(OS(=O)(=O)O)C(OC3OC(COS(=O)(=O)O)C(OS(=O)(=O)O)C(OS(=O)(=O)O)C3OS(=O)(=O)O)C2OS(=O)(=O)O)C1OS(=O)(=O)O [Compound 24, 3-Stearamidopropyl 2,3,4,6-tetra-O-sodium sulfonato-α-D-mannopyranosyl-(1→3)-2,4,6-tri-O-sodium sulfonato-α-D-mannopyranosyl-(1→3)-2,4,6-tri-O-sodium sulfonato-α-D-mannopyranosyl-(1→2)-3,4,6-tri-O-sodium sulfonato-α-D-mannopyranoside] | 0.44 ± 0.04 nM | 6 ± 2.1 nM | 68.1 s | 108 ± 11 nM | 40 ± 17 nM | 24.5 s |
| CC(C)CCCC(C)C1CCC2C3CCC4CC(OC(C(OS(=O)(=O)[O-])C(OS(=O)(=O)O)C(OC5OC(COS(=O)(=O)O)C(OC6OC(COS(=O)(=O)O)C(OC7OC(COS(=O)(=O)O)C(OS(=O)(=O)O)C(OS(=O)(=O)O)C7OS(=O)(=O)O)C(OS(=O)(=O)O)C6OS(=O)(=O)O)C(OS(=O)(=O)O)C5OS(=O)(=O)O)C(COS(=O)(=O)O)OS(=O)(=O)O)[n+]5ccccc5)CCC4(C)C3CCC12C [Compound 140, 3′-Cholestanyl 2,3,4,6-tetra-O-sulfo-α-D-glucopyranosyl-(1→4)-2,3,6-tri-O-sulfo-α-D-glucopyranosyl-(1→4)-2,3,6-tri-O-sulfo-α-D-glucopyranosyl-(1→4)-((1-pyridinium-1-yl)-2,3,5,6-tetra-O-sulfo-D-glucoside, tridecasodium salt] | 1.3 ± 0.6 nM | – | – | 380 ± 40 nM | 12 ± 2 nM | – |
| CCCCCCCCCCCCCCCCCC(=O)NCCCOC1OC(COS(=O)(=O)O)C(OS(=O)(=O)O)C(OS(=O)(=O)O)C1OC1OC(COS(=O)(=O)O)C(OS(=O)(=O)O)C(OC2OC(COS(=O)(=O)O)C(OS(=O)(=O)O)C(OC3OC(COS(=O)(=O)O)C(OS(=O)(=O)O)C(OC4OC(COS(=O)(=O)O)C(OS(=O)(=O)O)C(OS(=O)(=O)O)C4OS(=O)(=O)O)C3OS(=O)(=O)O)C2OS(=O)(=O)O)C1OS(=O)(=O)O [Compound 44, 3-Stearamidopropyl 2,3,4,6-tetra-O-sodium sulfonato-α-D-mannopyranosyl-(1→3)-2,4,6-tri-O-sodium sulfonato-α-D-mannopyranosyl-(1→3)-2,4,6-tri-O-sodium sulfonato-α-D-mannopyranosyl-(1→3)-2,4,6-tri-O-sodium sulfonato-α-D-mannopyranosyl-(1→2)-3,4,6-tri-O-sodium sulfonato-α-D-mannopyranoside] | 0.17 ± 0.07 nM | 4.4 ± 1.4 nM | 217.0 s | 80 ± 40 nM | 2.7 ± 0.5 nM | 58.5 s |
| CC(C)CCCC(C)C1CCC2C3CCC4CC(OCC(=O)NC5OC(COS(=O)(=O)O)C(OC6OC(COS(=O)(=O)O)C(OC7OC(COS(=O)(=O)O)C(OS(=O)(=O)O)C(OS(=O)(=O)O)C7OS(=O)(=O)O)C(OS(=O)(=O)O)C6OS(=O)(=O)O)C(OS(=O)(=O)O)C5OS(=O)(=O)O)CCC4(C)C3CCC12C (stereo not shown) [Compound 134] | 13 ± 3 nM | – | – | 630 ± 30 nM | 1080 ± 200 nM | – |
